Test results from publication PMC9154192 (PLoS Biology, 2022).
Values joined by “and” are separate entries in the source; they are usually repeats but may differ in a detail not shown here. Equal entries are not always repeated. Where two headings read alike, the source gives them in different places.

Experiments:
M. tuberculosis H37Rv [1] = test: Luminescence-based microbial cell viability assay; parameters: species or system Mycobacterium tuberculosis; details: for RLU/50ul (replicates1-3), single values / RLU/ml (×100) / RLU/50ul (average): Fig 2C
intestinal microbiome = test: Gut microbiome, 16s rRNA gene-based metagenomics analysis of feces; format: in vivo, BALB/c mice; details: 30 mg/kg oral once a day for 7 days, BALB/c mice, feces
Experimental: Six-week-old BALB/c female mice were used for this study (6 mice for each group). Each drug was administered orally at 30 mg/kg once daily for 7 days. Stool was collected, and 16 rRNA gene-based metagenomics analysis was performed. Corn oil was used as the vehicle. The drug-free group received corn oil only. This animal experiment was conducted with the approval of the IACUC of the Soonchunhyang University (approval number: SCH21-0011). Microbiome analysis of collected feces was carried out as previously described with some modifications. Total DNA was extracted from the stool using the QIAamp DNA stool mini kit (Qiagen, Germany) after mechanical disruption using lysing matrix B tubes (MP Biomedicals, USA). V4 region of 16S RNA gene was amplified from extracted DNA with the following primers: forward primer ([…]) and reverse primer ([…]). PCR was performed using the Kappa HiFi hot start kit (KAPA Biosystems, USA) for 16s gene amplification and library preparation. A dsDNA HS assay kit and Qubit 4 fluorimeter (Invitrogen, USA) were used for DNA quantification. After each step, quality was checked using Agilent High Sensitivity DNA Kit and Agilent Bioanalyzer 2100 (Agilent Technologies, USA). Clean-up was performed using AMPure XP beads (Beckman Coulter, UK). The metagenomic library was prepared using a Nextera XT DNA Library Prep Kit (Illumina, USA) and loaded into an iSeq-100 reagent cartridge (Illumina, USA) together with a PhiX Control library (Illumina, USA). A 300-bp paired-end sequencing was performed on an iSeq-100 platform (Illumina, USA). Sequencing data were analyzed using the EzBioCloud server (Chunlab, Korea).

M. tuberculosis H37Rv [2] = format: cell-based, Mycobacterium tuberculosis; details: for CFU/ml (average) / CFU/ml, single values / Intracellular M. tuberculosis, % (Drug Free = 100.0): Fig 3B, H37Rv
[3] = Acute oral toxicity test in mice; format: in vivo, BALB/c mice; details: single oral, 5 mice; for Deaths of mice, Days after dosing 0: day 0; for Deaths of mice, Days after dosing 1: day 1; for Deaths of mice, Days after dosing 2: day 2; for Deaths of mice, Days after dosing 3: day 3; for Deaths of mice, Days after dosing 4: day 4; for Deaths of mice, Days after dosing 5: day 5; for Deaths of mice, Days after dosing 6: day 6; for Deaths of mice, Days after dosing 7: day 7; for Deaths of mice, Days after dosing 8: day 8; for Deaths of mice, Days after dosing 9: day 9; for Deaths of mice, Days after dosing 10: day 10; for Deaths of mice, Days after dosing 11: day 11; for Deaths of mice, Days after dosing 12: day 12; for Deaths of mice, Days after dosing 13: day 13; for Deaths of mice, Days after dosing 14: day 14
Experimental: This experiment was conducted in a toxicity test at Soonchunhyang University's Animal Biological Safety Level 2 (ABSL-2) facility. The study protocol was reviewed and approved by Soonchunhyang University Animal Ethics Committee. Six-week-old female BALB/c were purchased from Koatech (Pyeongtaek, Korea) and five mice per group were tested. Drugs were orally administered once using a zonde and observed for two weeks. Corn oil (Sigma, USA) was used as the vehicle.

XDR M. tuberculosis = format: cell-based, Mycobacterium tuberculosis
[4] = format: in vivo, Crl:CD SD rats; details: single oral dose up to 2,000 mg/kg, SD rats, 2 weeks
Experimental: Toxicity studies were conducted at Biotoxtech (Korea) under review and approval from IACUC (170842, 180144, 170889) of Biotoxtech. All animals used in the toxicity test were purchased from OrientBio (Korea).
For acute toxicity study with a single oral administration, 6-week-old Crl:CD SD rats were used. For PP1S, a total of 8 groups (n = 4 rats/group) were used (0, 500, 1,000, and 2,000 mg/kg for females and males, respectively). For PP2S, a total of 4 groups (n = 5 rats/group) were used (0 and 2,000 mg/kg for females and males, respectively). […] Corn oil (Sigma, USA) was used as the vehicle. Control animals were treated only with the same volume of the vehicle.

CCCCOc1ccc2cc(CN3C(=O)CC[C@H]3C(=O)OC)c3cc(OC)c(OC)cc3c2c1 [PP2S, Methyl (S)-1-((3-butoxy-6,7-dimethoxyphenanthren-9-yl)methyl)-5-oxopyrrolidine-2-carboxylate]
RLU/50ul (replicates1-3), single values (M. tuberculosis H37Rv [1]; drug conc. 0.39): 1160 RLU/50ul and 1020 RLU/50ul and 2640 RLU/50ul and 2720 RLU/50ul and 2990 RLU/50ul and 1770 RLU/50ul and 1810 RLU/50ul and 1690 RLU/50ul and 1170 RLU/50ul
RLU/ml (×100) (M. tuberculosis H37Rv [1]; drug conc. 0.39): 377.1 RLU/ml (×100)
RLU/50ul (average) (M. tuberculosis H37Rv [1]; drug conc. 0.39, average of each replicate set): 2783 RLU/50ul and 1757 RLU/50ul and 1117 RLU/50ul
RLU/50ul (replicates1-3), single values (M. tuberculosis H37Rv [1]; drug conc. 0.78): 410 RLU/50ul and 270 RLU/50ul and 850 RLU/50ul (2×) and 870 RLU/50ul and 620 RLU/50ul and 650 RLU/50ul and 580 RLU/50ul and 390 RLU/50ul
RLU/ml (×100) (M. tuberculosis H37Rv [1]; drug conc. 0.78): 122.0 RLU/ml (×100)
RLU/50ul (average) (M. tuberculosis H37Rv [1]; drug conc. 0.78, average of each replicate set): 857 RLU/50ul and 617 RLU/50ul and 357 RLU/50ul
RLU/50ul (replicates1-3), single values (M. tuberculosis H37Rv [1]; drug conc. 1.56): 120 RLU/50ul and 160 RLU/50ul and 360 RLU/50ul and 370 RLU/50ul and 420 RLU/50ul and 110 RLU/50ul and 130 RLU/50ul (2×) and 170 RLU/50ul
RLU/ml (×100) (M. tuberculosis H37Rv [1]; drug conc. 1.56): 43.8 RLU/ml (×100)
RLU/50ul (average) (M. tuberculosis H37Rv [1]; drug conc. 1.56, average of each replicate set): 383 RLU/50ul and 137 RLU/50ul (2×)
concentration with significant antitubercular effect (M. tuberculosis H37Rv [1]; luminescence-based assay): 1.56 µg/mL and 0.78 µg/mL
beta set-significance analysis, pair-wise comparison of gut microbiome (intestinal microbiome): not significant
difference in phylum or class level taxa compared to drug-free group (intestinal microbiome): did not significantly differ
phylogenetic diversity compared to drug-free control group (intestinal microbiome): no significant change
CFU/ml (average) (M. tuberculosis H37Rv [2]; drug conc. 1.6): 26807 CFU/ml
CFU/ml, single values (M. tuberculosis H37Rv [2]; drug conc. 1.6): 23800 CFU/ml and 25500 CFU/ml and 31120 CFU/ml
Intracellular M. tuberculosis, % (Drug Free = 100.0) (M. tuberculosis H37Rv [2]; drug conc. 1.6): 79.7%
CFU/ml (average) (M. tuberculosis H37Rv [2]; drug conc. 3.1): 22130 CFU/ml
CFU/ml, single values (M. tuberculosis H37Rv [2]; drug conc. 3.1): 17950 CFU/ml and 21400 CFU/ml and 27040 CFU/ml
Intracellular M. tuberculosis, % (Drug Free = 100.0) (M. tuberculosis H37Rv [2]; drug conc. 3.1): 65.8%
CFU/ml (average) (M. tuberculosis H37Rv [2]; drug conc. 6.3): 12950 CFU/ml
Intracellular M. tuberculosis, % (Drug Free = 100.0) (M. tuberculosis H37Rv [2]; drug conc. 6.3): 38.5%
CFU/ml (average) (M. tuberculosis H37Rv [2]; drug conc. 12.5): 7367 CFU/ml
Intracellular M. tuberculosis, % (Drug Free = 100.0) (M. tuberculosis H37Rv [2]; drug conc. 12.5): 21.9%
CFU/ml (average) (M. tuberculosis H37Rv [2]; drug conc. 25): 640 CFU/ml
Intracellular M. tuberculosis, % (Drug Free = 100.0) (M. tuberculosis H37Rv [2]; drug conc. 25): 1.9%
growth of M. tuberculosis in macrophages (CFU) (M. tuberculosis H37Rv [2]; H37Rv in Raw 264.7 cells, 3 days, concentration-dependent): significantly inhibited the growth
Deaths of mice, Days after dosing 0 ([3]; Dose 500 mg/kg): 0
Deaths of mice, Days after dosing 1 ([3]; Dose 500 mg/kg): 0
Deaths of mice, Days after dosing 2 ([3]; Dose 500 mg/kg): 0
Deaths of mice, Days after dosing 3 ([3]; Dose 500 mg/kg): 0
Deaths of mice, Days after dosing 4 ([3]; Dose 500 mg/kg): 0
Deaths of mice, Days after dosing 5 ([3]; Dose 500 mg/kg): 0
Deaths of mice, Days after dosing 6 ([3]; Dose 500 mg/kg): 0
Deaths of mice, Days after dosing 7 ([3]; Dose 500 mg/kg): 0
Deaths of mice, Days after dosing 8 ([3]; Dose 500 mg/kg): 0
Deaths of mice, Days after dosing 9 ([3]; Dose 500 mg/kg): 0
Deaths of mice, Days after dosing 10 ([3]; Dose 500 mg/kg): 0
Deaths of mice, Days after dosing 11 ([3]; Dose 500 mg/kg): 0
Deaths of mice, Days after dosing 12 ([3]; Dose 500 mg/kg): 0
Deaths of mice, Days after dosing 13 ([3]; Dose 500 mg/kg): 0
Deaths of mice, Days after dosing 14 ([3]; Dose 500 mg/kg): 0
Deaths of mice, Days after dosing 0 ([3]; Dose 1000 mg/kg): 0
Deaths of mice, Days after dosing 1 ([3]; Dose 1000 mg/kg): 0
Deaths of mice, Days after dosing 2 ([3]; Dose 1000 mg/kg): 0
Deaths of mice, Days after dosing 3 ([3]; Dose 1000 mg/kg): 0
Deaths of mice, Days after dosing 4 ([3]; Dose 1000 mg/kg): 0
Deaths of mice, Days after dosing 5 ([3]; Dose 1000 mg/kg): 0
Deaths of mice, Days after dosing 6 ([3]; Dose 1000 mg/kg): 0
Deaths of mice, Days after dosing 7 ([3]; Dose 1000 mg/kg): 0
Deaths of mice, Days after dosing 8 ([3]; Dose 1000 mg/kg): 0
Deaths of mice, Days after dosing 9 ([3]; Dose 1000 mg/kg): 0
Deaths of mice, Days after dosing 10 ([3]; Dose 1000 mg/kg): 0
Deaths of mice, Days after dosing 11 ([3]; Dose 1000 mg/kg): 0
Deaths of mice, Days after dosing 12 ([3]; Dose 1000 mg/kg): 0
Deaths of mice, Days after dosing 13 ([3]; Dose 1000 mg/kg): 0
Deaths of mice, Days after dosing 14 ([3]; Dose 1000 mg/kg): 0
Deaths of mice, Days after dosing 0 ([3]; Dose 2000 mg/kg): 0
Deaths of mice, Days after dosing 1 ([3]; Dose 2000 mg/kg): 0
Deaths of mice, Days after dosing 2 ([3]; Dose 2000 mg/kg): 0
Deaths of mice, Days after dosing 3 ([3]; Dose 2000 mg/kg): 0
Deaths of mice, Days after dosing 4 ([3]; Dose 2000 mg/kg): 0
Deaths of mice, Days after dosing 5 ([3]; Dose 2000 mg/kg): 0
Deaths of mice, Days after dosing 6 ([3]; Dose 2000 mg/kg): 0
Deaths of mice, Days after dosing 7 ([3]; Dose 2000 mg/kg): 0
Deaths of mice, Days after dosing 8 ([3]; Dose 2000 mg/kg): 0
Deaths of mice, Days after dosing 9 ([3]; Dose 2000 mg/kg): 0
Deaths of mice, Days after dosing 10 ([3]; Dose 2000 mg/kg): 0
Deaths of mice, Days after dosing 11 ([3]; Dose 2000 mg/kg): 0
Deaths of mice, Days after dosing 12 ([3]; Dose 2000 mg/kg): 0
Deaths of mice, Days after dosing 13 ([3]; Dose 2000 mg/kg): 0
Deaths of mice, Days after dosing 14 ([3]; Dose 2000 mg/kg): 0
growth of M. tuberculosis in macrophages (CFU) (XDR M. tuberculosis): significantly inhibited the growth
change in body weight compared to control group [4]: no significant change
clinical symptoms and death [4]: not observed
